In PubChem BioAssay AID256 (DTP/NCI, 2004):
Where “and” joins values, the source holds several entries; their conditions need not be identical. Equal entries are not always repeated. Toxic doses and inconclusive results are not listed. The calls were made as follows: active = survival T/C of 150% or more; inactive = T/C below 125% in these data.

Test system: CD2F1 mice, L1210 leukemia ip, survival T/C
Experiment: NCI In Vivo Anticancer Drug Screen. Data for tumor model L1210 Leukemia (intraperitoneal) in CD2F1 (CDF1) mice
Conditions: endpoint: mean survival time, higher = longer survival
Procedure, shortened: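 Each value reflects a quotient of treated over vehicle control outcomes in mice with a transplanted tumor.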

[1] = dose: 100.0 mg/kg/injection, schedule: Q01DX009 (ip), vehicle: Klucel (hydroxypropylcellulose) (HPC)
[2] = dose: 100.0 mg/kg/injection, schedule: Q04DX003 (ip), vehicle: saline with Tween-80
[3] = dose: 200.0 mg/kg/injection, schedule: Q04DX003 (ip), vehicle: saline with Tween-80
[4] = dose: 400.0 mg/kg/injection, schedule: Q04DX003 (ip), vehicle: saline with Tween-80
[5] = dose: 100.0 mg/kg/injection, schedule: Q01DX001 (ip), vehicle: saline with Tween-80
[6] = dose: 200.0 mg/kg/injection, schedule: Q01DX001 (ip), vehicle: saline with Tween-80
[7] = dose: 400.0 mg/kg/injection, schedule: Q01DX001 (ip), vehicle: saline with Tween-80
[8] = dose: 100.0 mg/kg/injection, schedule: Q01DX009 (ip), vehicle: saline with Tween-80
[9] = dose: 200.0 mg/kg/injection, schedule: Q01DX009 (ip), vehicle: saline with Tween-80
[10] = dose: 100.0 mg/kg/injection, schedule: Q04DX003 (ip), vehicle: saline

Measured: T/C

CCOC(=O)c1ccc(NNS(=O)(=O)c2cccc(N)c2)cc1
inactive: [1] 97 % of control | [2] 96 % of control | dose: 200.0 mg/kg/injection, schedule: Q01DX009 (ip), vehicle: Klucel (hydroxypropylcellulose) (HPC) 93 % of control | [3] 101 % of control | dose: 400.0 mg/kg/injection, schedule: Q01DX009 (ip), vehicle: Klucel (hydroxypropylcellulose) (HPC) 101 % of control | [4] 95 % of control

CC(C)(C)SC(=O)C1(C)OC1c1ccc([N+](=O)[O-])cc1 (stereo unspecified)
inactive: dose: 100.0 mg/kg/injection, schedule: Q01DX001 (ip), vehicle: Klucel (hydroxypropylcellulose) (HPC) 97 % of control | dose: 200.0 mg/kg/injection, schedule: Q01DX001 (ip), vehicle: Klucel (hydroxypropylcellulose) (HPC) 94 % of control | dose: 400.0 mg/kg/injection, schedule: Q01DX001 (ip), vehicle: Klucel (hydroxypropylcellulose) (HPC) 97 % of control

CCOC(=O)NC1CCC1NC(=O)OCC (stereo unspecified)
inactive: [2] 95 % of control | [3] 106 % of control | [4] 107 % of control

CC(=O)OC1CCC2(C)C3CCC4(C)C(OC(=O)c5ccccc5)CCC4C3C3C(=O)OC32C1 (stereo unspecified)
inactive: [5] 91 % of control | [6] 90 % of control and 96 % of control | [7] 88 % of control

CCC(C)NC(=O)Nc1ccccc1C(F)(F)F (stereo unspecified)
inactive: [5] 106 % of control | [8] 92 % of control | [6] 95 % of control | [9] 88 % of control | [7] 89 % of control | dose: 400.0 mg/kg/injection, schedule: Q01DX009 (ip), vehicle: saline with Tween-80 94 % of control

c1ccc2cc(N=NNc3ccc4ccccc4c3)ccc2c1
inactive: dose: 50.0 mg/kg/injection, schedule: Q01DX009 (ip), vehicle: saline with Tween-80 94 % of control | [8] 98 % of control | [2] 95 % of control | [9] 100 % of control | [3] 92 % of control

CC(=O)Nc1ccc(S(N)(=O)=O)cc1
inactive: dose: 25.0 mg/kg/injection, schedule: Q01DX009 (ip), vehicle: Klucel (hydroxypropylcellulose) (HPC) 100 % of control | dose: 50.0 mg/kg/injection, schedule: Q01DX009 (ip), vehicle: Klucel (hydroxypropylcellulose) (HPC) 95 % of control | [1] 100 % of control

CCOC1=NC(C)(C)CC(C)O1 (stereo unspecified)
inactive: dose: 25.0 mg/kg/injection, schedule: Q01DX009 (ip), vehicle: saline 109 % of control | dose: 50.0 mg/kg/injection, schedule: Q01DX009 (ip), vehicle: saline 109 % of control | dose: 100.0 mg/kg/injection, schedule: Q01DX009 (ip), vehicle: saline 103 % of control | [10] 97 % of control

CC(=O)OCC1CCCN1C(C)=O (stereo unspecified)
inactive: dose: 100.0 mg/kg/injection, schedule: Q01DX001 (ip), vehicle: saline 97 % of control | dose: 200.0 mg/kg/injection, schedule: Q01DX001 (ip), vehicle: saline 97 % of control | dose: 400.0 mg/kg/injection, schedule: Q01DX001 (ip), vehicle: saline 97 % of control

O=C(O)CC(=O)O.[NH-]CCC1CCCC[N-]1.[Pt+2] (stereo unspecified)
inactive: dose: 3.13 mg/kg/injection, schedule: Q04DX003 (ip), vehicle: distilled water + Tween-80 111 % of control | dose: 6.25 mg/kg/injection, schedule: Q04DX003 (ip), vehicle: distilled water + Tween-80 108 % of control | dose: 12.5 mg/kg/injection, schedule: Q04DX003 (ip), vehicle: distilled water + Tween-80 114 % of control | dose: 25.0 mg/kg/injection, schedule: Q04DX003 (ip), vehicle: distilled water + Tween-80 114 % of control | dose: 25.0 mg/kg/injection, schedule: Q04DX003 (ip), vehicle: water 108 % of control | dose: 50.0 mg/kg/injection, schedule: Q04DX003 (ip), vehicle: distilled water + Tween-80 113 % of control | dose: 50.0 mg/kg/injection, schedule: Q04DX003 (ip), vehicle: water 120 % of control

CC(C)(C)C1CC=CCC1 (stereo unspecified)
inactive: [2] 98 % of control | [3] 98 % of control

CCCC(C(=O)OCC)C1=NC(C)(C)CC(C)O1 (stereo unspecified)
inactive: dose: 100.0 mg/kg/injection, schedule: Q04DX003 (ip), vehicle: acetone 100 % of control | dose: 200.0 mg/kg/injection, schedule: Q04DX003 (ip), vehicle: acetone 102 % of control | dose: 400.0 mg/kg/injection, schedule: Q04DX003 (ip), vehicle: acetone 94 % of control

CC(=O)OC1CCC2(C)C(=CCC3C4CC(C=O)=C(Cl)NC4(C)CCC32)C1 (stereo unspecified)
inactive: dose: 25.0 mg/kg/injection, schedule: Q01DX001 (ip), vehicle: saline with Tween-80 98 % of control | dose: 50.0 mg/kg/injection, schedule: Q01DX001 (ip), vehicle: saline with Tween-80 95 % of control | [5] 92 % of control and 101 % of control | [7] 87 % of control

O=C1c2ccccc2CCC12OC2c1ccc(Cl)cc1 (stereo unspecified)
inactive: dose: 50.0 mg/kg/injection, schedule: Q04DX003 (ip), vehicle: saline 106 % of control | [10] 101 % of control | dose: 200.0 mg/kg/injection, schedule: Q04DX003 (ip), vehicle: saline 101 % of control | dose: 400.0 mg/kg/injection, schedule: Q04DX003 (ip), vehicle: saline 98 % of control

C1CC2N=NC1C21CC1.[Cl][Cu][Cl]
inactive: dose: 6.25 mg/kg/injection, schedule: Q04DX002 (ip), vehicle: saline with Tween-80 96 % of control | dose: 12.5 mg/kg/injection, schedule: Q04DX002 (ip), vehicle: saline with Tween-80 108 % of control

CCCCCCCCC(=O)N1CCN(C(=O)CCCCCCCC)C1
inactive: dose: 75.0 mg/kg/injection, schedule: Q04DX003 (ip), vehicle: saline 94 % of control | dose: 150.0 mg/kg/injection, schedule: Q04DX003 (ip), vehicle: saline 97 % of control | dose: 300.0 mg/kg/injection, schedule: Q04DX003 (ip), vehicle: saline 95 % of control
